“Also recorded” adds a separate entry of the source. Marks after values point to notes of the source that are not given here. Numbered stars: 1 amine (or outer) side, 2 acyl side, 3 side chain; on linkers, the order of the positions; unused ones are H or OH. Square brackets hold non-standard residues; d marks the D form. Side chains are listed from the residue outwards. Peptide text beside a SMILES is read from it. * marks the point of attachment. Isobutyryl(2-(3-CN-5-F-Ph)) = CC(C)(C(=O)*)c1cc(F)cc(C#N)c1; C20 diacid = O=C(O)CCCCCCCCCCCCCCCCCCC(=O)*; γGlu = O=C(O)[C@H](CCC(=O)[*:2])N[*:1]; AEEA = NCCOCCOCC(=O)O; Aib = CC(C)(N)C(=O)O; βAla = NCCC(=O)O
Assay: Phase 1 MAD Cohorts 6-8: safety and tolerability (TEAEs)
Assay type: in vivo, human
Conditions: for Abdominal Distention / Constipation / Constipation Grade 1 / Constipation Grade 2 / Constipation Grade 3 / Diarrhea / Diarrhea Grade 1 / Diarrhea Grade 2 / Diarrhea Grade 3 / Drug-related TEAEs / Dyspepsia / Eructation / Fatal TEAEs / GI TEAEs (Total) / Gastroesophageal Reflux Disease / Nausea / Nausea Grade 1 / Nausea Grade 3 / Serious TEAEs / Subjects discontinued due to TEAE / Subjects with at least 1 TEAE / TEAE Severity: Grade 1 / TEAE Severity: Grade 2 / TEAE Severity: Grade 3 / Vomiting / Vomiting Grade 1 / Vomiting Grade 2 / Vomiting Grade 3 / Nausea Grade 2: N = 6
Description: The primary objective of this study is to determine the safety and tolerability of CT-388 in otherwise healthy overweight and obese adult participants when administered once weekly over 4 consecutive weeks with titrated dosing.
Safety and tolerability will be assessed by monitoring adverse events (AE) including local injection-site reactions, measuring vital signs and ECGs, and performing clinical laboratory blood and urine analyses.
• Cohort 6: One weekly dose titrated across 4 consecutive weeks with CT-388 doses of . . . • 5.0 mg at Day 1 • 5.0 mg at Day 8 • 5.0 mg at Day 15 • 7.5 mg at Day 22 • . . . or matched placebo administered subcutaneously in the abdomen • Cohort 7: One weekly dose titrated across 4 consecutive weeks with CT-388 doses of . . . • 5.0 mg at Day 1 • 5.0 mg at Day 8 • 8.0 mg at Day 15 • 12.0 mg at Day 22 • . . . or matched placebo administered subcutaneously in the abdomen • Cohort 8: One weekly dose titrated across 4 consecutive weeks with CT-388 doses of . . . • 5.0 mg at Day 1 • 8.0 mg at Day 8 • 12.0 mg at Day 15 • 12.0 mg at Day 22 • . . . or matched placebo administered subcutaneously in the abdomen (the third dose in Cohort 8 can be lowered to 8.0 mg based on tolerability data from Cohort 7) • Cohort 9: One weekly dose titrated across 4 consecutive weeks with CT-388 doses of . . . • 8.0 mg at Day 1 • 8.0 mg at Day 8 • 12.0 mg at Day 15 • 16.0 mg at Day 22 • . . . or matched placebo administered subcutaneously in the abdomen • Cohort 10: the following two dosing options are proposed in Table 3 below:
A Phase 1, randomized, placebo-controlled, double-blind study was conducted where single ascending doses (SAD; n=40; 0.5-7.5 mg) and multiple ascending doses (MAD; n=24; 5-12 mg via titration in 3 cohorts) were administered as described in Example 1 to overweight/obese adults.
The 24 patients in the MAD arm were divided into three cohorts (Cohorts 6, 7, and 8) as shown in Table 5 below (EOT: end of treatment).
Briefly, participants were randomized 3:1 (6 to CT-388, 2 to placebo, n=8 per cohort). CT-388 was administered once weekly at a dose of 5 mg at baseline in all cohorts and up-titrated up to 12 mg in Cohorts 7 & 8. Oral Glucose Tolerance Test (OGTT) with 75 g glucose solution was performed at baseline (Day −1) and on Day 23. Blood was collected at 15 min prior to OGTT, at OGTT start, and in 30-minute intervals until 120 minutes. Fasting glucose, insulin, C-peptide, and HOMA-IR were measured/calculated at baseline and on Day 23.

CC[C@H](C)[C@H](NC(=O)[C@H](CC(C)C)NC(=O)[C@H](Cc1c[nH]c2ccccc12)NC(=O)[C@H](CCC(N)=O)NC(=O)[C@@H](NC(=O)[C@H](Cc1ccccc1)NC(=O)[C@H](C)NC(=O)[C@H](CCCCNC(=O)COCCOCCNC(=O)COCCOCCNC(=O)CC[C@H](NC(=O)CCCCCCCCCCCCCCCCCCC(=O)O)C(=O)O)NC(=O)[C@H](CCC(N)=O)NC(=O)[C@H](C)NC(=O)[C@@H](NC(=O)[C@H](CCCCN)NC(=O)[C@H](CC(=O)O)NC(=O)[C@H](CC(C)C)NC(=O)C(C)(C)NC(=O)[C@@H](NC(=O)[C@H](CO)NC(=O)[C@H](Cc1ccc(O)cc1)NC(=O)[C@H](CC(=O)O)NC(=O)[C@H](CO)NC(=O)[C@@H](NC(=O)[C@H](Cc1ccccc1)NC(=O)[C@@H](NC(=O)CNC(=O)[C@H](CCC(=O)O)NC(=O)CCNC(=O)C(C)(C)c1cc(F)cc(C#N)c1)[C@@H](C)O)[C@@H](C)O)[C@@H](C)CC)[C@@H](C)CC)C(C)C)C(=O)N[C@@H](C)C(=O)NCC(=O)NCC(=O)N1CCC[C@H]1C(=O)N[C@@H](CO)C(=O)N[C@@H](CO)C(=O)NCC(=O)N[C@@H](C)C(=O)N1CCC[C@H]1C(=O)N1CCC[C@H]1C(=O)N1CCC[C@H]1C(=O)N[C@@H](CO)C(N)=O [CT-388] ({Isobutyryl(2-(3-CN-5-F-Ph))-βAla}-EGTFTSDYSI[Aib]LDKIAQK([AEEA-AEEA-γGlu-C20 diacid])AFVQWLIAGGPSSGAPPPS-NH2)
Abdominal Distention (Cohort 6, 5/5/5/7.5 mg SC QW): 3 n (%) | Constipation (Cohort 6, 5/5/5/7.5 mg SC QW): 3 n (%) | Constipation Grade 1 (Cohort 6, 5/5/5/7.5 mg SC QW): 3 n (%) | Constipation Grade 2 (Cohort 6, 5/5/5/7.5 mg SC QW): 0 n (%) | Constipation Grade 3 (Cohort 6, 5/5/5/7.5 mg SC QW): 0 n (%) | Diarrhea (Cohort 6, 5/5/5/7.5 mg SC QW): 2 n (%) | Diarrhea Grade 1 (Cohort 6, 5/5/5/7.5 mg SC QW): 2 n (%) | Diarrhea Grade 2 (Cohort 6, 5/5/5/7.5 mg SC QW): 0 n (%) | Diarrhea Grade 3 (Cohort 6, 5/5/5/7.5 mg SC QW): 0 n (%) | Drug-related TEAEs (Cohort 6, 5/5/5/7.5 mg SC QW): 33 # Events | Dyspepsia (Cohort 6, 5/5/5/7.5 mg SC QW): 1 n (%) | Eructation (Cohort 6, 5/5/5/7.5 mg SC QW): 0 n (%) | Fatal TEAEs (Cohort 6, 5/5/5/7.5 mg SC QW): 0 # Events | GI TEAEs (Total) (Cohort 6, 5/5/5/7.5 mg SC QW): 6 n (%) | Gastroesophageal Reflux Disease (Cohort 6, 5/5/5/7.5 mg SC QW): 0 n (%) | Nausea (Cohort 6, 5/5/5/7.5 mg SC QW): 6 n (%) | Nausea Grade 1 (Cohort 6, 5/5/5/7.5 mg SC QW): 4 n (%) | Nausea Grade 3 (Cohort 6, 5/5/5/7.5 mg SC QW): 0 n (%) | Serious TEAEs (Cohort 6, 5/5/5/7.5 mg SC QW): 0 # Events | Subjects discontinued due to TEAE (Cohort 6, 5/5/5/7.5 mg SC QW): 0 n (%) | Subjects with at least 1 TEAE (Cohort 6, 5/5/5/7.5 mg SC QW): 6 (100) n (%) | TEAE Severity: Grade 1 (Cohort 6, 5/5/5/7.5 mg SC QW): 6 (100) n (%) | TEAE Severity: Grade 2 (Cohort 6, 5/5/5/7.5 mg SC QW): 6 (100) n (%) | TEAE Severity: Grade 3 (Cohort 6, 5/5/5/7.5 mg SC QW): 0 n (%) | Vomiting (Cohort 6, 5/5/5/7.5 mg SC QW): 5 n (%) | Vomiting Grade 1 (Cohort 6, 5/5/5/7.5 mg SC QW): 2 n (%) | Vomiting Grade 2 (Cohort 6, 5/5/5/7.5 mg SC QW): 3 n (%) | Vomiting Grade 3 (Cohort 6, 5/5/5/7.5 mg SC QW): 0 n (%) | Nausea Grade 2 (Cohort 6, 5/5/5/7.5 mg SC QW, same subject experienced both mild and moderate events): 4 n (%) | Abdominal Distention (Cohort 7, 5/5/8/12 mg SC QW): 0 n (%) | Constipation (Cohort 7, 5/5/8/12 mg SC QW): 0 n (%) | Constipation Grade 1 (Cohort 7, 5/5/8/12 mg SC QW): 0 n (%) | Constipation Grade 2 (Cohort 7, 5/5/8/12 mg SC QW): 0 n (%) | Constipation Grade 3 (Cohort 7, 5/5/8/12 mg SC QW): 0 n (%) | Diarrhea (Cohort 7, 5/5/8/12 mg SC QW): 2 (33.3) n (%) | Diarrhea Grade 1 (Cohort 7, 5/5/8/12 mg SC QW): 2 (33.3) n (%) | Diarrhea Grade 2 (Cohort 7, 5/5/8/12 mg SC QW): 0 n (%) | Diarrhea Grade 3 (Cohort 7, 5/5/8/12 mg SC QW): 0 n (%) | Drug-related TEAEs (Cohort 7, 5/5/8/12 mg SC QW): 18 # Events | Dyspepsia (Cohort 7, 5/5/8/12 mg SC QW): 0 n (%) | Eructation (Cohort 7, 5/5/8/12 mg SC QW): 2 (33.3) n (%) | Fatal TEAEs (Cohort 7, 5/5/8/12 mg SC QW): 0 # Events | GI TEAEs (Total) (Cohort 7, 5/5/8/12 mg SC QW): 4 (66.7) n (%) | Gastroesophageal Reflux Disease (Cohort 7, 5/5/8/12 mg SC QW): 0 n (%) | Nausea (Cohort 7, 5/5/8/12 mg SC QW): 1 (16.7) n (%) | Nausea Grade 1 (Cohort 7, 5/5/8/12 mg SC QW): 1 (16.7) n (%) | Nausea Grade 2 (Cohort 7, 5/5/8/12 mg SC QW): 0 n (%) | Nausea Grade 3 (Cohort 7, 5/5/8/12 mg SC QW): 0 n (%) | Serious TEAEs (Cohort 7, 5/5/8/12 mg SC QW): 0 # Events | Subjects discontinued due to TEAE (Cohort 7, 5/5/8/12 mg SC QW): 0 n (%) | Subjects with at least 1 TEAE (Cohort 7, 5/5/8/12 mg SC QW): 6 n (%) | TEAE Severity: Grade 1 (Cohort 7, 5/5/8/12 mg SC QW): 6 n (%) | TEAE Severity: Grade 2 (Cohort 7, 5/5/8/12 mg SC QW): 1 n (%) | TEAE Severity: Grade 3 (Cohort 7, 5/5/8/12 mg SC QW): 0 n (%) | Vomiting (Cohort 7, 5/5/8/12 mg SC QW): 2 (33.3) n (%) | Vomiting Grade 1 (Cohort 7, 5/5/8/12 mg SC QW): 2 (33.3) n (%) | Vomiting Grade 2 (Cohort 7, 5/5/8/12 mg SC QW): 0 n (%) | Vomiting Grade 3 (Cohort 7, 5/5/8/12 mg SC QW): 0 n (%) | Abdominal Distention (Cohort 8, 5/8/12/12 mg SC QW): 0 n (%) | Constipation (Cohort 8, 5/8/12/12 mg SC QW): 1 (16.7) n (%) | Constipation Grade 1 (Cohort 8, 5/8/12/12 mg SC QW): 1 (16.7) n (%) | Constipation Grade 2 (Cohort 8, 5/8/12/12 mg SC QW): 0 n (%) | Constipation Grade 3 (Cohort 8, 5/8/12/12 mg SC QW): 0 n (%) | Diarrhea (Cohort 8, 5/8/12/12 mg SC QW): 3 (50.0) n (%) | Diarrhea Grade 1 (Cohort 8, 5/8/12/12 mg SC QW): 3 (50.0) n (%) | Diarrhea Grade 2 (Cohort 8, 5/8/12/12 mg SC QW): 0 n (%) | Diarrhea Grade 3 (Cohort 8, 5/8/12/12 mg SC QW): 0 n (%) | Drug-related TEAEs (Cohort 8, 5/8/12/12 mg SC QW): 25 # Events | Dyspepsia (Cohort 8, 5/8/12/12 mg SC QW): 0 n (%) | Eructation (Cohort 8, 5/8/12/12 mg SC QW): 1 (16.7) n (%) | Fatal TEAEs (Cohort 8, 5/8/12/12 mg SC QW): 0 # Events | GI TEAEs (Total) (Cohort 8, 5/8/12/12 mg SC QW): 5 (83.3) n (%) | Gastroesophageal Reflux Disease (Cohort 8, 5/8/12/12 mg SC QW): 2 (33.3) n (%) | Nausea (Cohort 8, 5/8/12/12 mg SC QW): 3 (50.0) n (%) | Nausea Grade 1 (Cohort 8, 5/8/12/12 mg SC QW): 2 (33.3) n (%) | Nausea Grade 2 (Cohort 8, 5/8/12/12 mg SC QW): 1 (16.7) n (%) | Nausea Grade 3 (Cohort 8, 5/8/12/12 mg SC QW): 0 n (%) | Serious TEAEs (Cohort 8, 5/8/12/12 mg SC QW): 0 # Events | Subjects discontinued due to TEAE (Cohort 8, 5/8/12/12 mg SC QW): 0 n (%) | Subjects with at least 1 TEAE (Cohort 8, 5/8/12/12 mg SC QW): 6 n (%) | TEAE Severity: Grade 1 (Cohort 8, 5/8/12/12 mg SC QW): 6 n (%) | TEAE Severity: Grade 2 (Cohort 8, 5/8/12/12 mg SC QW): 3 n (%) | TEAE Severity: Grade 3 (Cohort 8, 5/8/12/12 mg SC QW): 0 n (%) | Vomiting (Cohort 8, 5/8/12/12 mg SC QW): 2 (33.3) n (%) | Vomiting Grade 1 (Cohort 8, 5/8/12/12 mg SC QW): 2 (33.3) n (%) | Vomiting Grade 2 (Cohort 8, 5/8/12/12 mg SC QW): 1 (16.7) n (%) | Vomiting Grade 3 (Cohort 8, 5/8/12/12 mg SC QW): 0 n (%) | tolerability (MAD cohorts, 5 mg up-titrated to 12 mg SC QW over 4 weeks): generally well tolerated; also recorded: generally well-tolerated; also recorded: favorable tolerability profile

Source: US20240390464A1, “Treatment of Adults With Overweight or Obesity With or Without Weight-Related Comorbidities” (Carmot Therapeutics Inc., priority 2023, published 2024)
